Blank lines part the entries; values can stand above or below the substance they belong to.
What was measured:
Assay in all cases: Phosphomimetic ProP-PD selection with NGS
Scribble PDZ3 = format: binding, human; settings: bait Scribble PDZ3
Protocol: (§1) Phage selections were carried out for four rounds following a protocol by Huang and Sidhu (Huang & Sidhu, 2011) with minor modifications. Non‐specific binding phage was removed by pre‐selections against immobilized GST throughout the selection. The selections against the (pre‐)phosphorylated wild‐type library were performed in 50 mM HEPES (pH 7.4) and 150 mM NaCl (HBS) following the same procedure after pre‐phosphorylation of the library.
(§2) • Immobilize proteins (15 μg in 100 μl PBS) in a 96‐well MaxiSorp microtiter plate (NUNC) overnight at 4°C. • Start a 2YT culture of E. coli Omnimax supplemented with 100 μg/ml tetracycline to retain the F pilus epitope. • Block the wells with 200 μl 0.5% BSA in PBS for 2 h at 4°C. • Precipitate naïve phage library (10^11 cfu per selection) or amplified phage pool from the previous round of selection by adding one‐fifth the volume of PEG/NaCl. • Incubate on ice for 10 min, and pellet precipitated phage by centrifugation at 5,300 g for 15 min. Resuspend the phage pellet in 100 μl PBS per selection. • Add 100 μl of phage solution to the GST‐coated pre‐selection wells and incubate for 1 h. • Transfer the phage solution to the immobilized target proteins and allow it to bind for 2 h at 8°C. • Wash the plate four times with 200 μl cold wash buffer (PBS, 0.05% Tween‐20). • Elute bound phage by incubation with 100 μl log phase (0.6–0.8 OD600) E. coli Omnimax for 30 min at 37°C with shaking (200 RPM). • Add 10^12 cfu/ml M13K07 helper phage for hyperinfection of the bacteria and incubate as above for 45 min. • Transfer the bacterial culture to 10 ml 2YT supplemented with 50 μg/ml carbenicillin, 25 μg/ml kanamycin, and 300 μM IPTG and incubate overnight at 37°C while shaking. • Perform phage pool ELISA to monitor the progress of the selection as described previously (Huang & Sidhu, 2011).
(§3) The naïve library and the enriched phage pools of the third day of selection were amplified and barcoded by PCR and analyzed by NGS as described elsewhere (McLaughlin & Sidhu, 2013; Ivarsson et al, 2014). The reads were demultiplexed using the barcode sequences and filtered by discarding sequences with a Phred quality score under 30. Sequences were mapped to the original library using Bowtie (Langmead et al, 2009) with two mismatches between reads and library sequence. Nucleotide mutations leading to amino acid substitutions were subsequently removed. Cutoff values of NGS counts were assigned for each pool. PWMs were generated based on the remaining peptides (aligned on the C‐termini) using WebLogo (Crooks et al, 2004).
(§4) However, there was no significant correlation of the actual read counts (selection “strength”) and the initial representation in the library, reflecting the strong selection during phage display (wt+mimetic: P‐value: 0.49, ρ = −0.08, mimetic only: P‐value: 0.069, ρ = −0.2, wt only: P‐value: 0.12, ρ = 0.17). Consequently, the amount of reads for each binder after phage display is not a function of the amount of input reads in the naïve library and no modeling based on the input library frequencies to score the interactions is necessary. To allow for comparison between replicate selections, we used the fraction of NGS reads within a certain set, instead of the absolute number of NGS reads, as the absolute numbers differ between different NGS batches.

Scribble PDZ1 = target: T1, Scribble PDZ1 (Homo sapiens, UniProt Q14160); format: binding; settings: for Mean fraction #NGS counts mimetic peptide / total count selection / Mean fraction #NGS counts wt peptide / total counts selection: bait Scribble PDZ1, mean of selections 1-3
T1 construct: human Scribble PDZ1 aa 719–829 in; made in house; host or cells: E. coli BL21 Gold (DE3)
Protocol: as §1, §2, §3, §4

DLG1 PDZ2 = target: T2, DLG1 PDZ2 (Homo sapiens, UniProt Q12959); format: binding; settings: mean of selections 1-3, bait DLG1 PDZ2
T2 construct: human DLG1 PDZ2 aa 311–407 in a modified pRSET vector 40; made in house; host or cells: E. coli BL21 Gold (DE3)
Protocol: as §1, §2, §3, §4

[1] = mean of selections 1-3, wild type peptide
[2] = mean of selections 1-3, phosphomimetic peptide

T1 sequence (Q14160 719-829): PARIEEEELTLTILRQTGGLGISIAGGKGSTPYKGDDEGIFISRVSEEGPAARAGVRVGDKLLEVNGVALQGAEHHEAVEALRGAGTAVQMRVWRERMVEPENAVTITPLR
T2 sequence (Q12959 311-407): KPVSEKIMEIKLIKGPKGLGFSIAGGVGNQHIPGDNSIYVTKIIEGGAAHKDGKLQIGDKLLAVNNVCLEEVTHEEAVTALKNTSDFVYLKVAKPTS

Substance: VTSERETNI
Mean fraction #NGS counts wt peptide / total counts selection (Scribble PDZ3; mean over selections 1-3): 0.001424

Substance: PLHSLETEL
Mean fraction #NGS counts mimetic peptide / total count selection (Scribble PDZ1): 0.01704
Mean fraction #NGS counts mimetic peptide / total count selection (Scribble PDZ3; mean over selections 1-3): 0.01661

Substance: SQSRMETNM
Mean fraction #NGS counts mimetic peptide / total count selection (Scribble PDZ3; mean over selections 1-3): 0.0002587

Substance: ERLEYETTL
Mean fraction #NGS counts wt peptide / total counts selection (Scribble PDZ3; [1]): 0.0004529
Mean fraction #NGS counts wt peptide / total counts selection (Scribble PDZ3; mean over selections 1-3): 0.0004529

Substance: HEIKQSTAV
Mean fraction #NGS counts mimetic peptide / total count selection (DLG1 PDZ2; phosphomimetic peptide): 0

Substance: KKRMVEEPL
Mean fraction #NGS counts mimetic peptide / total count selection (Scribble PDZ3; mean over selections 1-3): 0

Substance: TMFLRETEL‐coo‐
occurrence in NGS of the selection relative to wild‐type counterpart (Scribble PDZ1; phage-displayed peptide, phosphomimetic ProP‐PD selection against Scribble PDZ1): three times more

Substance: HEIKQETAV
Mean fraction #NGS counts mimetic peptide / total count selection (DLG1 PDZ2): 0.0002182

Substance: KYVDAETEL
Mean fraction #NGS counts mimetic peptide / total count selection (Scribble PDZ3; [2]): 0.0004194

Substance: KYVDAETSL
Mean fraction #NGS counts wt peptide / total counts selection (Scribble PDZ3; [1]): 0.0001259

Substance: PTHVLQTQI
Mean fraction #NGS counts wt peptide / total counts selection (Scribble PDZ1): 0

Substance: PLHSLETSL
Mean fraction #NGS counts wt peptide / total counts selection (Scribble PDZ1): 0.0001571
Mean fraction #NGS counts wt peptide / total counts selection (Scribble PDZ3; [1]): 0.0002079
Mean fraction #NGS counts wt peptide / total counts selection (Scribble PDZ3; mean over selections 1-3): 0.0002261

Substance: VKRLLESVF
Mean fraction #NGS counts mimetic peptide / total count selection (Scribble PDZ1): 0.005379

Substance: SATSVHTSV
Mean fraction #NGS counts wt peptide / total counts selection (DLG1 PDZ2; wild type peptide): 0.0005933

Substance: SRKRTESFL
Mean fraction #NGS counts mimetic peptide / total count selection (Scribble PDZ3; mean over selections 1-3): 0.0004518

Substance: SIDLWETAL
Mean fraction #NGS counts wt peptide / total counts selection (Scribble PDZ3; mean over selections 1-3): 0.004105

Substance: DSEILETVV
Mean fraction #NGS counts mimetic peptide / total count selection (DLG1 PDZ2): 0

Substance: NSTNMESEL
Mean fraction #NGS counts mimetic peptide / total count selection (Scribble PDZ3; [2]): 0.001938

Substance: ISYRREEAI
Mean fraction #NGS counts mimetic peptide / total count selection (Scribble PDZ3; mean over selections 1-3): 0

Substance: IPLTRETTF
Mean fraction #NGS counts mimetic peptide / total count selection (Scribble PDZ3; mean over selections 1-3): 0.0004175

Substance: VRKLPETTL
Mean fraction #NGS counts mimetic peptide / total count selection (Scribble PDZ3; mean over selections 1-3): 0.002417

Substance: HEKVFTSAL
Mean fraction #NGS counts wt peptide / total counts selection (Scribble PDZ1): 0
Mean fraction #NGS counts wt peptide / total counts selection (Scribble PDZ3; mean over selections 1-3): 0.0001136

Substance: SRKRTSSFL
Mean fraction #NGS counts wt peptide / total counts selection (Scribble PDZ3; mean over selections 1-3): 0

Substance: MRLQEETEV
Mean fraction #NGS counts mimetic peptide / total count selection (DLG1 PDZ2): 0.0001421

Substance: KLSEIESDV
Mean fraction #NGS counts mimetic peptide / total count selection (DLG1 PDZ2): 0
Mean fraction #NGS counts mimetic peptide / total count selection (Scribble PDZ3; mean over selections 1-3): 6.057e-6

Second part, led by results:

Mean fraction #NGS counts mimetic peptide / total count selection (Scribble PDZ1): 0.0001138
Substance: EPTVHVTEL
Mean fraction #NGS counts mimetic peptide / total count selection (Scribble PDZ3; mean over selections 1-3): 1.586e-5

Mean fraction #NGS counts wt peptide / total counts selection (Scribble PDZ1): 0.0005328
Substance: RPHTNETSL
Mean fraction #NGS counts wt peptide / total counts selection (Scribble PDZ3; mean over selections 1-3): 0.0004079

Mean fraction #NGS counts wt peptide / total counts selection (DLG1 PDZ2): 3.877e-6
Substance: LRLQSETSV

Mean fraction #NGS counts wt peptide / total counts selection (Scribble PDZ1): 0
Substance: ISWLAFSVL

Mean fraction #NGS counts wt peptide / total counts selection (DLG1 PDZ2): 0.002312
Substance: RATSWYSPY

Mean fraction #NGS counts mimetic peptide / total count selection (Scribble PDZ1): 2.8202e-5
Substance: LAPNIIEQL

Mean fraction #NGS counts wt peptide / total counts selection (Scribble PDZ1): 4.38e-5
Substance: VRSKLPSNL

Mean fraction #NGS counts mimetic peptide / total count selection (Scribble PDZ1): 0
Substance: DKEEFLTWL
Mean fraction #NGS counts mimetic peptide / total count selection (Scribble PDZ3; mean over selections 1-3): 0.0001294

Mean fraction #NGS counts mimetic peptide / total count selection (Scribble PDZ1): 0
Substance: PLHELETSL
Mean fraction #NGS counts mimetic peptide / total count selection (Scribble PDZ3; mean over selections 1-3): 0

Mean fraction #NGS counts mimetic peptide / total count selection (Scribble PDZ1): 0.01768
Substance: MKRLTETRL
Mean fraction #NGS counts mimetic peptide / total count selection (Scribble PDZ3; mean over selections 1-3): 0.001041

Mean fraction #NGS counts mimetic peptide / total count selection (Scribble PDZ1): 0
Substance: PLHSLEESL
Mean fraction #NGS counts mimetic peptide / total count selection (Scribble PDZ3; mean over selections 1-3): 0

Mean fraction #NGS counts wt peptide / total counts selection (Scribble PDZ1): 0.000274
Substance: DKESFLTWL
Mean fraction #NGS counts wt peptide / total counts selection (Scribble PDZ3; mean over selections 1-3): 0.01024

Mean fraction #NGS counts mimetic peptide / total count selection (Scribble PDZ1): 0.002226
Substance: PIHSLETEL
Mean fraction #NGS counts mimetic peptide / total count selection (Scribble PDZ3; mean over selections 1-3): 0.002436

Mean fraction #NGS counts mimetic peptide / total count selection (DLG1 PDZ2; phosphomimetic peptide): 0
Substance: RSEMKPGFV

Mean fraction #NGS counts mimetic peptide / total count selection (Scribble PDZ1): 0.002401
Substance: QKFRAETAL
Mean fraction #NGS counts mimetic peptide / total count selection (Scribble PDZ3; mean over selections 1-3): 0.001978

Mean fraction #NGS counts mimetic peptide / total count selection (DLG1 PDZ2): 0
Mean fraction #NGS counts wt peptide / total counts selection (DLG1 PDZ2): 3.748e-5
Substance: RPLRRESEI
Mean fraction #NGS counts wt peptide / total counts selection (Scribble PDZ3; mean over selections 1-3): 8.219e-5

Mean fraction #NGS counts wt peptide / total counts selection (Scribble PDZ1): 0
Substance: QKFRASTAL
Mean fraction #NGS counts wt peptide / total counts selection (Scribble PDZ3; mean over selections 1-3): 4.038e-6

Source: paper PMC6100724, “Proteome‐wide analysis of phospho‐regulated PDZ domain interactions” (Molecular Systems Biology, 2018)
